Source: patent US12077503B2, “Substituted cyclic amides and their use as herbicides” (FMC CORPORATION, priority 2015, dated 2024)

Legend:
Format in all cases: in vivo
[1] = system: ragweed (common ragweed, Ambrosia elatior); experiment: Test A preemergence; details: Ambrosia artemisiifolia, pre-emergence, 240 h, Preemergence
Summary of the method: (§1)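 In a loam soil and sand blend, planted seeds got a preemergence directed soil spray, and young plants at the one- to two-leaf stage, 2–10 cm high, got a postemergence application; ~10 d greenhouse hold; injury rated visually, 0 = none, 100 = complete control.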

[2] = system: ryegrass, Italian (Italian ryegrass, Lolium multiflorum); experiment: Test A preemergence; details: Lolium multiflorum, pre-emergence, 240 h, Preemergence
Summary of the method: as §1

[3] = system: barnyardgrass (Echinochloa crus-galli); experiment: Test A preemergence; details: Echinochloa crus-galli, pre-emergence, 240 h, Preemergence
Summary of the method: as §1

Kochia (Kochia scoparia) [4] = experiment: Test A preemergence; details: Bassia scoparia, pre-emergence, 240 h, Preemergence
Summary of the method: as §1

[5] = system: pigweed (Amaranthus retroflexus); experiment: Test A preemergence; details: Amaranthus retroflexus, pre-emergence, 240 h, Preemergence
[6] = system: giant foxtail (Setaria faberii); experiment: Test A preemergence; details: Setaria faberi, pre-emergence, 240 h, Preemergence
Summary of the method: as §1

[7] = system: ragweed (common ragweed, Ambrosia elatior); experiment: Test A postemergence; details: Ambrosia artemisiifolia, post-emergence, 240 h
Summary of the method: as §1

[8] = system: ryegrass, Italian (Italian ryegrass, Lolium multiflorum); experiment: Test A postemergence; details: Lolium multiflorum, post-emergence, 240 h
Summary of the method: as §1

corn (Zea mays) = experiment: Test A postemergence; details: Zea mays, post-emergence, 240 h
Summary of the method: as §1

[9] = system: blackgrass (Alopecurus myosuroides); experiment: Test A postemergence; details: Alopecurus myosuroides, post-emergence, 240 h
Summary of the method: as §1

[10] = system: wheat (Triticum aestivum); experiment: Test A postemergence; details: Triticum aestivum, post-emergence, 240 h
Summary of the method: as §1

[11] = system: barnyardgrass (Echinochloa crus-galli); experiment: Test A postemergence; details: Echinochloa crus-galli, post-emergence, 240 h
Summary of the method: as §1

Kochia (Kochia scoparia) [12] = experiment: Test A postemergence; details: Bassia scoparia, post-emergence, 240 h
Summary of the method: as §1

[13] = system: pigweed (Amaranthus retroflexus); experiment: Test A postemergence; details: Amaranthus retroflexus, post-emergence, 240 h
Summary of the method: as §1

[14] = system: giant foxtail (Setaria faberii); experiment: Test A postemergence; details: Setaria faberi, post-emergence, 240 h
Summary of the method: as §1

[15] = system: Galium (catchweed bedstraw, Galium aparine); experiment: Test A postemergence; details: Galium, post-emergence, 240 h
Summary of the method: as §1

rice (Oryra sativa) = experiment: Test B flooded paddy test; details: Oryza sativa, 250 g ai/ha, Flood; 0 to 100 scale where 0 is no effect and 100 is complete control; read-out: Rice plant response rating
Summary of the method: (§2)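 Plants at 2-leaf stage flooded to 3 cm above soil, with compounds applied directly to paddy water and that depth maintained. Plants kept in greenhouse 13–15 d. Visual rating versus controls on a 0 (no effect) to 100 (complete control) scale.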

[16] = system: barnyardgrass (Echinochloa crus-galli); experiment: Test B flooded paddy test; details: Echinochloa crus-galli, 250 g ai/ha, Flood; 0 to 100 scale where 0 is no effect and 100 is complete control; read-out: Barnyardgrass plant response rating
Summary of the method: as §2

[17] = system: ducksalad (Heteranthera limosa); experiment: Test B flooded paddy test; details: Heteranthera limosa, 250 g ai/ha, Flood; 0 to 100 scale where 0 is no effect and 100 is complete control; read-out: Ducksalad plant response rating
Summary of the method: as §2

[18] = system: sedge, umbrella (small-flower umbrella sedge, Cyperus difformis); experiment: Test B flooded paddy test; details: Cyperus difformis, 250 g ai/ha, Flood; 0 to 100 scale where 0 is no effect and 100 is complete control; read-out: Sedge, Umbrella plant response rating
Summary of the method: as §2

Structure (SMILES): CSc1ccccc1NC(=O)[C@H]1C(=O)N(C)C[C@@H]1c1ccc(C(F)(F)F)cn1 [Compound 1051]
- pest or weed control at 31 g/ha ([1]; 31 g ai/ha, 0 to 100 scale where 0 is no effect and 100 is complete control, read-out: Ragweed plant response rating): 0%
- pest or weed control at 125 g/ha ([1]; 125 g ai/ha, visual injury rating after approximately 10 d, read-out: Ragweed plant response rating (0 to 100 scale, 0 is no effect, 100 is complete control)): 0%
- pest or weed control at 31 g/ha ([2]; 31 g ai/ha, 0 to 100 scale where 0 is no effect and 100 is complete control, read-out: Ryegrass, Italian plant response rating): 0%
- pest or weed control at 125 g/ha ([2]; 125 g ai/ha, visual injury rating after approximately 10 d, read-out: Ryegrass, Italian plant response rating (0 to 100 scale, 0 is no effect, 100 is complete control)): 0%
- pest or weed control at 125 g/ha ([3]; 125 g ai/ha, visual injury rating after approximately 10 d, read-out: Barnyardgrass plant response rating (0 to 100 scale, 0 is no effect, 100 is complete control)): 20%
- pest or weed control at 31 g/ha ([3]; 31 g ai/ha, 0 to 100 scale (0 no effect, 100 complete control), read-out: Plant response rating, Barnyardgrass): 0%
- pest or weed control at 31 g/ha (Kochia (Kochia scoparia) [4]; 31 g ai/ha, 0 to 100 scale where 0 is no effect and 100 is complete control, read-out: Kochia plant response rating): 0%
- pest or weed control at 125 g/ha (Kochia (Kochia scoparia) [4]; 125 g ai/ha, visual injury rating after approximately 10 d, read-out: Kochia plant response rating (0 to 100 scale, 0 is no effect, 100 is complete control)): 0%
- pest or weed control at 31 g/ha ([5]; 31 g ai/ha, 0 to 100 scale where 0 is no effect and 100 is complete control, read-out: Pigweed plant response rating): 0%
- pest or weed control at 125 g/ha ([5]; 125 g ai/ha, visual injury rating after approximately 10 d, read-out: Pigweed plant response rating (0 to 100 scale, 0 is no effect, 100 is complete control)): 40%
- pest or weed control at 125 g/ha ([6]; 125 g ai/ha, visual injury rating after approximately 10 d, read-out: Foxtail, Giant plant response rating (0 to 100 scale, 0 is no effect, 100 is complete control)): 90%
- pest or weed control at 31 g/ha ([6]; 31 g ai/ha, 0 to 100 scale (0 no effect, 100 complete control), read-out: Plant response rating, Foxtail, Giant): 30%
- pest or weed control at 125 g/ha ([7]; 125 g ai/ha, postemergence, visual injury on 0 to 100 scale (0 no effect, 100 complete control), approx. 10 d, read-out: Ragweed plant response rating): 0%
- pest or weed control at 31 g/ha ([7]; Postemergence, 31 g ai/ha, visual injury after approx. 10 d, 0 to 100 scale, 0 no effect, 100 complete control, read-out: Plant response rating, Ragweed): 0%
- pest or weed control at 125 g/ha ([8]; 125 g ai/ha, postemergence, visual injury on 0 to 100 scale (0 no effect, 100 complete control), approx. 10 d, read-out: Ryegrass, Italian plant response rating): 0%
- pest or weed control at 31 g/ha ([8]; Postemergence, 31 g ai/ha, visual injury after approx. 10 d, 0 to 100 scale, 0 no effect, 100 complete control, read-out: Plant response rating, Ryegrass, Italian): 0%
- plant injury at 125 g/ha (corn (Zea mays); 125 g ai/ha, postemergence, visual injury on 0 to 100 scale (0 no effect, 100 complete control), approx. 10 d, read-out: Corn plant response rating): 0%
- Corn plant response rating (crop injury, 0 = no effect, 100 = complete kill) at 31 g/ha (corn (Zea mays); Postemergence, 31 g ai/ha, visual injury after approx. 10 d, 0 to 100 scale, 0 no effect, 100 complete control): 0%
- pest or weed control at 125 g/ha ([9]; 125 g ai/ha, postemergence, visual injury on 0 to 100 scale (0 no effect, 100 complete control), approx. 10 d, read-out: Blackgrass plant response rating): 0%
- pest or weed control at 31 g/ha ([9]; Postemergence, 31 g ai/ha, visual injury after approx. 10 d, 0 to 100 scale, 0 no effect, 100 complete control, read-out: Plant response rating, Blackgrass): 0%
- plant injury at 125 g/ha ([10]; 125 g ai/ha, postemergence, visual injury on 0 to 100 scale (0 no effect, 100 complete control), approx. 10 d, read-out: Wheat plant response rating): 0%
- plant injury at 31 g/ha ([10]; Postemergence, 31 g ai/ha, visual injury after approx. 10 d, 0 to 100 scale, 0 no effect, 100 complete control, read-out: Plant response rating, Wheat): 0%
- pest or weed control at 125 g/ha ([11]; 125 g ai/ha, postemergence, visual injury on 0 to 100 scale (0 no effect, 100 complete control), approx. 10 d, read-out: Barnyardgrass plant response rating): 0%
- pest or weed control at 31 g/ha ([11]; Postemergence, 31 g ai/ha, visual injury after approx. 10 d, 0 to 100 scale, 0 no effect, 100 complete control, read-out: Plant response rating, Barnyardgrass): 0%
- pest or weed control at 125 g/ha (Kochia (Kochia scoparia) [12]; 125 g ai/ha, postemergence, visual injury on 0 to 100 scale (0 no effect, 100 complete control), approx. 10 d, read-out: Kochia plant response rating): 0%
- pest or weed control at 31 g/ha (Kochia (Kochia scoparia) [12]; Postemergence, 31 g ai/ha, visual injury after approx. 10 d, 0 to 100 scale, 0 no effect, 100 complete control, read-out: Plant response rating, Kochia): 0%
- pest or weed control at 125 g/ha ([13]; 125 g ai/ha, postemergence, visual injury on 0 to 100 scale (0 no effect, 100 complete control), approx. 10 d, read-out: Pigweed plant response rating): 0%
- pest or weed control at 31 g/ha ([13]; Postemergence, 31 g ai/ha, visual injury after approx. 10 d, 0 to 100 scale, 0 no effect, 100 complete control, read-out: Plant response rating, Pigweed): 0%
- pest or weed control at 125 g/ha ([14]; 125 g ai/ha, postemergence, visual injury on 0 to 100 scale (0 no effect, 100 complete control), approx. 10 d, read-out: Foxtail, Giant plant response rating): 0%
- pest or weed control at 31 g/ha ([14]; Postemergence, 31 g ai/ha, visual injury after approx. 10 d, 0 to 100 scale, 0 no effect, 100 complete control, read-out: Plant response rating, Foxtail, Giant): 0%
- pest or weed control at 125 g/ha ([15]; 125 g ai/ha, postemergence, visual injury on 0 to 100 scale (0 no effect, 100 complete control), approx. 10 d, read-out: Galium plant response rating): 50%
- pest or weed control at 31 g/ha ([15]; Postemergence, 31 g ai/ha, visual injury after approx. 10 d, 0 to 100 scale, 0 no effect, 100 complete control, read-out: Plant response rating, Galium): 30%
- pest or weed control at 250 g/ha (rice (Oryra sativa)): 0%
- pest or weed control at 250 g/ha [16]: 0%
- pest or weed control at 250 g/ha [17]: 75%
- pest or weed control at 250 g/ha [18]: 0%
